Measured values taken from patent US9326517B2, “Synergistic combination of a chlorotoluron compound and IPBC for dry film protection” (Dow Global Technologies LLC, priority 2013, dated 2016).

Key:
Chlorella sp. ATCC 7516 = experiment: Algal efficacy testing of dry paint films (modified ASTM 5589, 6-well plates); format: cell-based; conditions: 3 weeks; for Total conc: total biocide concentration in paint used as minimum inhibitory concentration for SI, pass level ≧75% inhibition
Description: Slurries containing 33% antimicrobial active ingredient (chlorotoluron) were post added to a white, acrylic/silicone based outdoor paint free of biocides to give a total active ingredient concentration of 10000 and 1000 ppm respectively. ROCIMA™ 250 (40% IPBC) was post added to a white, acrylic/silicone based outdoor paint free of biocides to give a total active ingredient concentration of 10000 and 1000 ppm respectively. These paints were then diluted with an antimicrobial free acrylic/silicone based paint and mixed to prepare targeted concentrations of antimicrobial compounds for the testing. The total biocides concentrations tested were 125, 250, 500, 1000, 2000 and 5000 ppm. After biocides addition or dilution, the paints were mixed 90 seconds with the horse power shaker (AXEL 75M3372/Agitateur SO-10MI) until uniformity was achieved. Paints containing different antimicrobial compounds at the same levels were mixed together in order to obtain the desired ratio of antimicrobial compounds. After one day, the paints were applied to Schleicher & Schuell filter paper at 280 μm wet film thickness and dried for 3 days at room temperature avoiding direct exposure to sunlight. Square discs (1.6 cm×1.6 cm) were cut out from each panel and were used as the substrate for algal efficacy tests. This sample size allowed for an agar border when the sample disc was placed into the well of the test plate.
Algal efficacy was tested according to modified ASTM 5589 which is a standard accelerated test method for determining resistance of various coatings (including paints) to algal defacement. To accommodate for high-throughput screening, this method was scaled down from petri dishes to 6-well plates. Bold Modified Basal Freshwater Nutrient Solution was used as growth medium. A single coated filter paper coupon was placed with a pair of sterile forceps at the center of the agar plug (on top) with the painted surface facing upwards. Algal inoculum was prepared by mixing equal concentrations (1×10^6 cfu/ml) and equal volumes of exponentially growing algae cultures.
Each well that contains a tested coupon was inoculated with 1750 μl of algal suspensions (1×10^6 cfu/ml) making sure that the whole surface (paint film as well as the agar surrounding it) was evenly covered. The plates were incubated at room temp (21° C.-25° C.) with cyclic exposure to light and dark phases, for a period of three weeks. The total area inhibited was evaluated at the end of each week according to percent area covered in 5% increments.
At the end of the three week incubation period, the samples were scored for percent inhibition regarding color intensity compared to the blank sample.
The Synergy Index calculation was performed as follows.
The SI is calculated based on F. C. Kull et. […]

[1] = cited from earlier work

Row | Compound | Total conc (Chlorella sp. ATCC 7516) | inhibition at 1000 ppm (Chlorella sp. ATCC 7516; 504 h, total conc 1000 ppm in paint) | solubility in water [1] | inhibition at 2000 ppm (Chlorella sp. ATCC 7516; 504 h, total conc 2000 ppm in paint)
1 | Cc1ccc(NC(=O)N(C)C)cc1Cl [Chlorotoluron, N′-(3-chloro-4-methylphenyl)-N,N-dimethylurea] | 1000 ppm | 100% | relatively low | 
2 | CCCCNC(=O)OCC#CI [IPBC, 3-Iodo-2-propynyl butylcarbamate] | 2000 ppm |  |  | 70%
